How the values were obtained:
[1] = system: bcr3-abl2 peptide-specific CD4^+ T cell clones; assay: Proliferative assay of bcr3-abl2 peptide-specific CD4+ T cell clones ([3H] thymidine incorporation); format: cell-based, BALB/c mice; details: for [^3H] Thymidine Incorporation (c.p.m.) after Stimulation with bcr3-abl2 peptide (5 μg/ml): peptides of varying lengths 5 μg/ml, 96 hour culture, Table 4; for [^3H] Thymidine Incorporation (c.p.m.) after Stimulation with bcr-abl 12 peptide/proteins (μg/ml) / [^3H] Thymidine Incorporation (c.p.m.): 96-hour culture; for [^3H] Thymidine Incorporation (c.p.m.) after Stimulation with bcr-abl 12 peptide/proteins (μg/ml): Table 5; for [^3H] Thymidine Incorporation (c.p.m.): peptide 5 μg/ml, Table 2
Experimental: Mice (female BALB/c and C57BL/6 (B6), 6 to 8 weeks old; Jackson Laboratories, Bar Harbor, Me.) were inoculated twice at 2-week intervals by subcutaneous injection with Complete Freund's Adjuvant (Sigma Chemical Co., St. Louis, Mo.) alone or emulsified with bcr3-abl2 peptide (100 μg). Ten days after the final immunization, single cell suspensions of draining lymph nodes and spleens were prepared in medium consisting of 1:1 mixture of RPMI 1640 (Gibco Laboratories, Inc., Grand Island, N.Y.) and EHAA (Biofluids, Inc., Rockville, Md.) with 2.5×10^−5 M 2-ME, 200 U/ml penicillin, 200 U/ml streptomycin, 10 mM L-glutamine and 10% fetal calf serum. For proliferative assays, lymphocytes were cultured in 96-well plates at 2×10^5 cells per well with 4×10^5 irradiated syngeneic spleen cells (3,000 rad) and designated (total volume of 200 μl per well). Plates were incubated in a humidified atmosphere under 5% CO2 tension at 37° C. for 72 hours, and then pulsed for 18 hours with […] of [^3H]-thumidine per well. Proliferative responses of cloned T cells utilized 2×10^4 cells per well with 5×10^5 irradiated syngeneic spleen cells (3,000 rad) and designated peptide.
Lymphocytes from the draining lymph nodes of mice immunized with bcr3-abl2 peptide were cultured in 24-well culture plates at 4×10^6 cells per well with 2×10^6 irradiated syngeneic spleen cells and bcr3-abl2 peptide at 25 μg/ml (total volume 2 ml). The plates were cultured in a humidified atmosphere under 5% CO2 tension at 37° C. for 5 days then split 1:2. After 10 days, lymphocytes were restimulated at 1×10^6 lymphocytes per well in 24-well culture plates with 5×10^6 irradiated syngeneic spleen cells and peptide (25 μg/ml). Two days after the second in vitro stimulation, T cells were-plated at 0.5 cells per well in 96-well flat-bottom plates with 1×10^6 irradiated syngeneic spleen cells and rIL-2 (50 U/ml). Derived T cell clones were maintained by periodic stimulation with peptide (1 μg/ml) plus irradiated syngeneic spleen cells followed by expansion with rIL-2 (10 U/ml) every 2 weeks. T cell clones were stained with FITC-conjugated anti-Thy 1.2 (1%), or FITC-conjugated anti-Lyt2 (2%), or PE-conjugated anti-L3T4 (3%) mAbs (Becton Dickinson Immunocytochemistry Systems, Mountain View, Calif.) at 4° C. for 45 minutes.

[2] = system: spleen cells from mice immunized with p54-66[L61]; assay: Proliferative response of spleen cells from mice immunized with p54-66[L61] ras peptide; format: cell-based, C3H/HeN mice; details: lymphocytes from mice immunized with p54-66[L61]; FIG. 4
Experimental: This peptide is denoted as p54-66[L61] or [L61]. C3H/HeN mice were immunized twice subcutaneously at two week intervals with Ribi adjuvant alone or adjuvant emulsified with p54-66[L61] ras peptide (100 μg). Two weeks after the final immunization, spleen cells from mice injected with adjuvant alone (open bar) or adjuvant plus p54-66[L61] ras peptide (black bar) were harvested and tested in vitro for proliferative response to the indicated p54-66 ras peptide (100 μg/ml). The peptide containing the substitution of lysine (K) for glutamine at position 61 is denoted as [K61]. The data represent the mean of triplicate determinations of the c.p.m. of incorporated ^3HTdR±S.D.

[3] = system: lymphocytes from mice immunized with the Arg-12 peptide; assay: Proliferation assay of lymph node lymphocytes from mice immunized with ras Arg-12 peptide; format: cell-based; details: lymphocytes from C57BL/6 mice immunized with a single dose of Arg-12 peptide; FIG. 1
Experimental: FIG. 1 graphically illustrates that specific T cell responses to point-mutated ras peptide can be generated by in vivo priming on day 0 with 50 μg of a peptide of 12 amino acid length constructed identically to murine ras-p21 (amino acids 5-16) but with the substitution of arginine for the glycine normally found at position 12 (i.e., position 12 of ras-p21 but position 8 of the peptide). This peptide is denoted as ras p5-16[R12] or as ras-R12. Mice were immunized with ras-R12 peptide plus adjuvant or with adjuvant alone. […]
Lymphocytes obtained from immunized mice were suspended in culture medium (consisting of RPMI 1640 Gibco supplemented with 10% fetal calf serum, 2 mM L-glutamine, 100 U/ml streptomycin, 100 U/ml penicillin and 2.5×10^−5 M 2-mercaptoethanol) and were plated in 96-well flat bottom microtiter plates (Costar Co., Cambridge, Mass.) at 1×10^5 cells per well. […] Lymphocytes from individual wells were collected onto filter paper disks using a multi-channel harvester then transferred to scintillation fluid in individual counting tubes. β emission was measured using a Beckmann liquid scintillation spectrophotometer. […]

Q: “G F K Q S S K A L Q R P V A (GFKQSSKALQRPVA) [bcr3-abl2 14-mer peptide]” was tested. Which “[^3H] Thymidine Incorporation (c.p.m.) after Stimulation with bcr3-abl2 peptide (5 μg/ml)” value ([1]; T cell clone 1D2) did it give?
A: 238,297 c.p.m.

Q: And the “[^3H] Thymidine Incorporation (c.p.m.) after Stimulation with bcr-abl 12 peptide/proteins (μg/ml)” value ([1]; T cell clone 2E10, peptide/protein 0.04 μg/ml)?
A: 6,303 c.p.m.

Q: And the “[^3H] Thymidine Incorporation (c.p.m.) after Stimulation with bcr-abl 12 peptide/proteins (μg/ml)” value ([1]; T cell clone 2E10, peptide/protein 0.2 μg/ml)?
A: 54,896 c.p.m.

Q: And the “[^3H] Thymidine Incorporation (c.p.m.) after Stimulation with bcr-abl 12 peptide/proteins (μg/ml)” value ([1]; T cell clone 2E10, peptide/protein 1 μg/ml)?
A: 92,970 c.p.m.

Q: What about the “[^3H] Thymidine Incorporation (c.p.m.) after Stimulation with bcr3-abl2 peptide (5 μg/ml)” value ([1]; T cell clone 2E10) of the same substance?
A: 170,085 c.p.m.

Q: How did the “[^3H] Thymidine Incorporation (c.p.m.)” value ([1]; T cell clone 1D2) turn out when “I V H S A T G F K Q S S (IVHSATGFKQSS) [bcr3, reference compound]” was run?
A: 294 c.p.m.

Q: What about the “[^3H] Thymidine Incorporation (c.p.m.)” value ([1]; T cell clone 2B12) of the same substance?
A: 461 c.p.m.

Q: What about the “[^3H] Thymidine Incorporation (c.p.m.)” value ([1]; T cell clone 2D4) of the same substance?
A: 133 c.p.m.

Q: And the “[^3H] Thymidine Incorporation (c.p.m.)” value ([1]; T cell clone 2E3)?
A: 193 c.p.m.

Q: And the “[^3H] Thymidine Incorporation (c.p.m.)” value ([1]; T cell clone 2E10)?
A: 667 c.p.m.

Q: And the “[^3H] Thymidine Incorporation (c.p.m.)” value ([1]; T cell clone 3B7)?
A: 462 c.p.m.

Q: And the “[^3H] Thymidine Incorporation (c.p.m.)” value ([1]; T cell clone 3E11)?
A: 305 c.p.m.

Q: And the “[^3H] Thymidine Incorporation (c.p.m.)” value ([1]; T cell clone 3G2)?
A: 461 c.p.m.

Q: What about the “[^3H] Thymidine Incorporation (c.p.m.)” value ([1]; T cell clone 3G3) of the same substance?
A: 190 c.p.m.

Q: What about the “response of bcr3-abl2 peptide-specific T cell clones (in words)” value ([1]; proliferative assay with irradiated syngeneic APC) of the same substance?
A: failed to respond

Q: For “Leu-61 peptide: 13 residues 54-66 of ras p21 with leucine for glutamine at position 61 (DILDTAGLEEYSA; UniProt P01112 54-66, looked up, fragment Q61L)”, which proliferation in vitro [2] is on record?
A: proliferate in vitro

Q: For “KLVVVGARGVGK [Arg-12 peptide, residues 5-16 of ras p21 with arginine for glycine at position 12]”, which “proliferative response in vitro” value [3] is on record?
A: proliferate specifically

Q: What does the source list for “L T I N K E E A L Q R P (LTINKEEALQRP) [bcr2-abl2, 12 mer of p210 joining region, bcr exon 2 fused to c-abl exon 2, reference compound]”?
A: [^3H] Thymidine Incorporation (c.p.m.) ([1]; T cell clone 1D2): 274 c.p.m.; [^3H] Thymidine Incorporation (c.p.m.) ([1]; T cell clone 2B12): 341 c.p.m.; [^3H] Thymidine Incorporation (c.p.m.) ([1]; T cell clone 2D4): 143 c.p.m.; [^3H] Thymidine Incorporation (c.p.m.) ([1]; T cell clone 2E3): 402 c.p.m.; [^3H] Thymidine Incorporation (c.p.m.) ([1]; T cell clone 2E10): 287 c.p.m.; [^3H] Thymidine Incorporation (c.p.m.) ([1]; T cell clone 3B7): 349 c.p.m.; [^3H] Thymidine Incorporation (c.p.m.) ([1]; T cell clone 3E11): 299 c.p.m.; [^3H] Thymidine Incorporation (c.p.m.) ([1]; T cell clone 3G2): 478 c.p.m.; [^3H] Thymidine Incorporation (c.p.m.) ([1]; T cell clone 3G3): 217 c.p.m.

Q: How did the “[^3H] Thymidine Incorporation (c.p.m.) after Stimulation with bcr3-abl2 peptide (5 μg/ml)” value ([1]; T cell clone 1D2) turn out when “IVHSATGFKQSSKALQRPVASD (IVHSATGFKQSSKALQRPVASD) [bcr3-abl2 22-mer]” was run?
A: 21,208 c.p.m.

Q: And the “[^3H] Thymidine Incorporation (c.p.m.) after Stimulation with bcr3-abl2 peptide (5 μg/ml)” value ([1]; T cell clone 2E10)?
A: 29,509 c.p.m.

Q: With “G F K Q S S K A L Q R P V A S D (GFKQSSKALQRPVASD) [bcr3-abl2 16-mer]” as the substance, how does the “[^3H] Thymidine Incorporation (c.p.m.) after Stimulation with bcr3-abl2 peptide (5 μg/ml)” value ([1]; T cell clone 1D2) read?
A: 108,309 c.p.m.

Q: And the “[^3H] Thymidine Incorporation (c.p.m.) after Stimulation with bcr3-abl2 peptide (5 μg/ml)” value ([1]; T cell clone 2E10)?
A: 139,083 c.p.m.

Q: “H S A T G F K Q S S K A L Q R P V A (HSATGFKQSSKALQRPVA) [bcr3-abl2 18-mer]” was tested. Which “[^3H] Thymidine Incorporation (c.p.m.) after Stimulation with bcr3-abl2 peptide (5 μg/ml)” value ([1]; T cell clone 1D2) did it give?
A: 150,309 c.p.m.

Q: What about the “[^3H] Thymidine Incorporation (c.p.m.) after Stimulation with bcr3-abl2 peptide (5 μg/ml)” value ([1]; T cell clone 2E10) of the same substance?
A: 224,674 c.p.m.

Q: How did the proliferation in vitro [2] turn out when “Lys-61: p54-66 ras peptide with lysine for glutamine at position 61 (DILDTAGKEEYSA; UniProt P01112 54-66, looked up, fragment Q61K)” was run?
A: not

Q: Which “[^3H] Thymidine Incorporation (c.p.m.)” value ([1]; T cell clone 1D2) does the source give for “A F H G D A Q A L Q R P V A (AFHGDAQALQRPVA) [BCRI-abl2, 14 mer of p185 bcr-abl joining region, reference compound]” here?
A: 315 c.p.m.

Q: What about the “[^3H] Thymidine Incorporation (c.p.m.)” value ([1]; T cell clone 2B12) of the same substance?
A: 385 c.p.m.

Q: And the “[^3H] Thymidine Incorporation (c.p.m.)” value ([1]; T cell clone 2D4)?
A: 147 c.p.m.

Q: And the “[^3H] Thymidine Incorporation (c.p.m.)” value ([1]; T cell clone 2E3)?
A: 461 c.p.m.

Q: What about the “[^3H] Thymidine Incorporation (c.p.m.)” value ([1]; T cell clone 2E10) of the same substance?
A: 137 c.p.m.

Q: And the “[^3H] Thymidine Incorporation (c.p.m.)” value ([1]; T cell clone 3B7)?
A: 277 c.p.m.

Q: And the “[^3H] Thymidine Incorporation (c.p.m.)” value ([1]; T cell clone 3E11)?
A: 398 c.p.m.

Q: And the “[^3H] Thymidine Incorporation (c.p.m.)” value ([1]; T cell clone 3G2)?
A: 583 c.p.m.

Q: And the “[^3H] Thymidine Incorporation (c.p.m.)” value ([1]; T cell clone 3G3)?
A: 351 c.p.m.

Q: “Gln-61: p54-66 ras peptide with the normal glutamine at position 61 (DILDTAGQEEYSA; UniProt P01112 54-66, looked up, fragment)” was tested. Which proliferation in vitro [2] did it give?
A: not

— US20040235070A1, “Immune reactivity to expressed activated oncogenes for diagnosis and treatment of malignancy” (Washington Research Foundation, priority 1990, published 2004)
